System: excised porcine nasal tissue
Experiment: Ex vivo nasal mucosal absorption, static diffusion (Franz) cell
Details: diffusion measured after 7 hours, compared with the other formulations
Protocol: A standard static diffusion (Franz) cell set up was employed to set up an ex vivo model for nasal mucosa absorption, using an excised porcine nasal tissue.
Diffusion through the tissue was measured after 7 hours and permeation is shown as mean (three repeats) cumulative transport (μg/cm^2; with SD) in FIGS. 8 and 9 for naloxone and nalmefene, respectively.

**Q.** For benzalkonium chloride, which “Apparent permeation coefficient (Papp) of nalmefene” value is on record?
**A.** Its value is “No corresponding absorption enhancement”.

**Q.** And the “Apparent permeation coefficient (Papp) of naloxone” value?
**A.** Its value is “No corresponding absorption enhancement”.

— patent US10898480B1, “Pharmaceutical composition for nasal delivery” (Orexo AB, priority 2019, dated 2021)
